Holding throughout (format): cell-based
One test relates to alveolar macrophages. Briefly: PM exposure of alveolar macrophages (Example 6). The text has this: FIG. 30A-D. CBR-470 activates NRF2 and inhibits PM-induced inflammatory cytokine production from alveolar macrophages. (a-c) Indicated transcript levels in response to PM exposure for 4 hr in the presence and absence of CBR-470, PGK1 inhibitor (10 micromolar). (d) Western blot analysis of NRF2 protein levels under the conditions in a-c.
FIG. 31. Time dependent effects of CBR-470-1 on alveolar macrophage cytokine mRNA levels at specific timepoints
FIG. 32. […] This represents a distinct mechanism of action compared to many other pharmacologic NRF2 activators, which achieve efficacy through induction of ROS (reactive oxygen species).
Indicated transcript levels in response to PM exposure for 4 hr in the presence and absence of CBR-470-1, PGK1 inhibitor (10 micromolar). Western blot analysis of NRF2 protein levels. PM-exposure also results in activation of the NRF2 pathway, which is confirmed by increased transcript levels of its prototypical target Nqo1 (FIG. 30c) and NRF2 protein accumulation (FIG. 30d). […] FIG. 31 illustrates time dependent effects of CBR-470-1 on alveolar macrophage cytokine mRNA levels at specific timepoints. […] This represents a distinct mechanism of action compared to many other pharmacologic NRF2 activators, which achieve efficacy through induction of ROS (reactive oxygen species).

Test [1] concerns MHS cells (a murine alveolar macrophage cell line). The experiment in a line: PM- or LPS-induced mRNA expression in MHS cells. As to the method: FIG. 14A-B. MHS cells (a murine alveolar macrophage cell line) were treated with particulate matter (PM) or LPS and vehicle control (media) in the absence or presence of CBR-470-1 (pretreated 4 hours prior to PM/LPS) and measured IL-6 mRNA 4 hours later.
FIG. 15A-B. MHS cells were treated with particulate matter (PM) or LPS and vehicle control (media) in the absence or presence of CBR-470-1 (also noted as Drug in the figure) (pretreated 4 hours prior to PM/LPS) and measured TNFa and NQO1 mRNA 4 hours later. […] NQO1 (NAD(P)H:quinone oxidoreductase), also known as DT-diaphorase, is a major regulator of oxidative stress and activator of mitomycins. ROS produced during metabolic processes are normally converted into harmless products by antioxidant enzymes such as NQO1.
FIG. 16A-B. MHS cells were treated with particulate matter (PM) or LPS and vehicle control (media) in the absence or presence of different doses of CBR-470 (pretreated 4 hours prior to PM/LPS) and measured IL-6 mRNA 4 hours later.
FIG. 17A-B. MHS cells were treated with particulate matter (PM) or LPS and vehicle control (media) in the absence or presence of different doses of CBR-470-1 (pretreated 4 hours prior to PM/LPS) and measured TNFa and NQO1 mRNA 4 hours later.
FIG. 18A-C. MHS cells were treated with particulate matter (PM) or LPS and vehicle control (media) in the absence or presence of CBR-470-1 (5 uM, pretreated 4 hours prior to PM/LPS) and measured IL-6, TNFa and NQO1 mRNA 4 hours and 24 hours later.

The subject of test [2] is NRF2-dependent luciferase reporter (pTI-ARE-LUC). The experiment in a line: ARE-LUC reporter assay in HEK293T cells with PGK1 knockdown or overexpression. How it is done: FIG. 1A-D. CBR-470-1-dependent inhibition of glycolysis activates NRF2 signaling. […] PGK1, Actin and Tubulin protein levels are shown from representative experiments (n=3). (c) Heat map depiction of relative metabolite levels in IMR32 cells treated for 30 min with CBR-470-1 (left) or viral shRNA knockdown of PGK1 (right) relative to DMSO and scramble shRNA controls, respectively. BPG refers to both 2,3-BPG and 1,3-BPG, whereas 1,3-BPG specifically refers to the 1,3-isomer.
High throughput screening and ARE-LUC reporter assay. For high throughput screening, IMR32 cells were plated at 5×10^3 cells per well in white 384-well plates in 40 μL of growth medium. […] After 24 hour incubation, ARE-LUC luminance values were recorded on an Envision instrument after the addition of 30 μL of Bright Glo reagent solution (Promega, diluted 1:3 in water). […] For overexpression and knockdown experiments in HEK293T with ARE-LUC reporter readouts, 5×10^5 cells were plated on poly-d-lysine coated plates and transfected with 1.5 μg of overexpression or shRNA plasmid and 500 ng of pTI-ARE-LUC using Optimem medium and Fugene in the same mode as above. […] ARE-LUC luminance values were recorded on an Envision plate reader 24 hours later by the addition of 75 μL of Bright Glo reagent solution (1:3 in water).

Setting [3] is: control and PM-treated cells, PM 4 hr.
Where [4] appears, read: pretreated 4 hours, measured 4 hours later.

This is an account of results in patent publication US12048686B2, “Compositions and methods for activating NRF2-dependent gene expression” (The University of Chicago, priority 2018, dated 2024).

In the case of `CC(C)CN[C@H]1CS(=O)(=O)C[C@@H]1S(=O)(=O)c1ccc(Cl)cc1` [CBR-470-1], in the test with alveolar macrophages (alveolar macrophages), the ROS elevation entry is listed as “does not cause significant ROS elevation in alveolar macrophages” and the overall cellular bioenergetics entry is “only a slight decrease in overall cellular bioenergetics”. Besides, in the test with alveolar macrophages (setting [3]), the “Il6 mRNA levels” value is “dose-dependent decreases in 116 and Tnfα mRNA levels in both control and PM-treated cells”; the “Tnfα mRNA levels” value was “dose-dependent decreases in 116 and Tnfα mRNA levels in both control and PM-treated cells”. Also, the “NRF2-signaling (Nqo1 transcript, NRF2 protein)” value with alveolar macrophages (control and PM-treated macrophages) is “activates NRF2-signaling in both control and PM-treated macrophages”. In test [1] (different doses, 4 hours), the “NQO1 mRNA” value is “induced NQO1 (Nrf2 target gene) under both PM and LPS in a dose dependent manner”; the “TNFa mRNA” value was “attenuated PM- and LPS-induced TNFa mRNA expression”. Further, in test [1] (setting [4]), the “IL-6 mRNA” value is “abolished PM- and LPS-induced il6 mRNA expression”; the “NQO1 mRNA” value was “induced NQO1 (Nrf2 target gene) under both PM and LPS”; the “TNFa mRNA” value is “abolished PM- and LPS-induced TNFa mRNA expression”. In test [2] (knockdown of PGK1), the “EC50 of ARE-LUC reporter activation” value was “decreased”. In addition, the “EC50 of ARE-LUC reporter activation” value in test [2] (overexpression of PGK1) is on record as “increased”.
